From patent US9676712B2, “Lactam compounds as EP4 receptor-selective agonists for use in the treatment of EP4-mediated diseases and conditions” (Cayman Chemical Company, Inc., priority 2013, dated 2017)

Columns and labels:
EP4 receptor [1] = molecular target: T1, EP4 receptor (Rattus norvegicus (Rat), UniProt P43114); assay: STEP plate cell functional assay, cAMP level (ELISA), EP4; assay type: cell-based; conditions: 30 minutes, 500 μM IBMX
Description: (§1) Functional Cellular Assays (STEP Plate Format)
Procedure of cAMP Assay for EP2/EP4 Agonist
(§2) 3. […] In addition each concentration had triplicates.
6. Aspirate the supernatant.

EP4 receptor [2] = molecular target: T1, EP4 receptor; assay: STEP plate cell functional assay, SEAP activity, EP4; assay type: cell-based; conditions: SEAP reporter, 6-8 hours stimulation
Description: as §1
(§3) Procedure of SEAP Activity Assay for EP2/EP4 Agonist
as §2
(§4) 4. […] Cover the plate with the lid.

EP2 receptor = EP2 receptor (Rattus norvegicus (Rat), UniProt Q62928); assay: STEP plate cell functional assay, SEAP activity, EP2; assay type: cell-based; conditions: SEAP reporter, 6-8 hours stimulation
Sequence of EP2 receptor (Q62928 whole entry): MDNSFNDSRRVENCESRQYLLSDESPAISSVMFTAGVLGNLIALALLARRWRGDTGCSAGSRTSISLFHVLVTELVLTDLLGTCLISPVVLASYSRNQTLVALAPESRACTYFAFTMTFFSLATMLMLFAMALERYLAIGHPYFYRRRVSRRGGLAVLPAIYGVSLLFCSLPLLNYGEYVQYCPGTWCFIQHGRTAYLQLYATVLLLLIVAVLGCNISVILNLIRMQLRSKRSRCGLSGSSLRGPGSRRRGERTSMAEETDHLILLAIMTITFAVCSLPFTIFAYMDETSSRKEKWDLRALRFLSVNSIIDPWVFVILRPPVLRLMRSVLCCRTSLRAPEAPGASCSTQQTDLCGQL
Description: as §1, §3, §2, §4

[3] = molecular target: Human Prostanoid EP4 Receptor (Homo sapiens (Human), UniProt P35408); assay: Radioligand binding assay, agonist site of the human prostanoid EP4 receptor in transfected HEK-293 cells ([3H]PGE2)
Sequence of Human Prostanoid EP4 Receptor (P35408 whole entry): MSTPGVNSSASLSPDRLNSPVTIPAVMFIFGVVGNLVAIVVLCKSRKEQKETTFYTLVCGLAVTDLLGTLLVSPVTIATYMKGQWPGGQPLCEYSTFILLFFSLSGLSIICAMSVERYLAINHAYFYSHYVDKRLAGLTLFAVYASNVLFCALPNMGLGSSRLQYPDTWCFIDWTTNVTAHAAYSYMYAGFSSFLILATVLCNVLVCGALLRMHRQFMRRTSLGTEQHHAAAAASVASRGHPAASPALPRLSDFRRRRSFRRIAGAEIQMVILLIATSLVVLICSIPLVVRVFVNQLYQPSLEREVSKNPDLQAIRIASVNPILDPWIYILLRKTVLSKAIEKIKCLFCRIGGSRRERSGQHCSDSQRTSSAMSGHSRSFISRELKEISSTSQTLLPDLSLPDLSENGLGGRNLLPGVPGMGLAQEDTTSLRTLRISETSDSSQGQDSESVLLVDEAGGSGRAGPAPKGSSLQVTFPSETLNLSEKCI
Protocol: Radioligand Binding Assay for the Evaluation of the Affinity of Compounds for the Agonist Site of the Human Prostanoid EP4 Receptor in Transfected HEK-293 Cells
Following incubation, the samples are filtered rapidly under vacuum through glass fiber filters (GF/B, Packard) presoaked with 0.3% PEI and rinsed several times with ice-cold 50 mM Tris-HCl using a 96-sample cell harvester (Unifilter, Packard). The filters are dried then counted for radioactivity in a scintillation counter (Topcount, Packard) using a scintillation cocktail (Microscint 0, Packard).

T1 sequence (P43114 whole entry): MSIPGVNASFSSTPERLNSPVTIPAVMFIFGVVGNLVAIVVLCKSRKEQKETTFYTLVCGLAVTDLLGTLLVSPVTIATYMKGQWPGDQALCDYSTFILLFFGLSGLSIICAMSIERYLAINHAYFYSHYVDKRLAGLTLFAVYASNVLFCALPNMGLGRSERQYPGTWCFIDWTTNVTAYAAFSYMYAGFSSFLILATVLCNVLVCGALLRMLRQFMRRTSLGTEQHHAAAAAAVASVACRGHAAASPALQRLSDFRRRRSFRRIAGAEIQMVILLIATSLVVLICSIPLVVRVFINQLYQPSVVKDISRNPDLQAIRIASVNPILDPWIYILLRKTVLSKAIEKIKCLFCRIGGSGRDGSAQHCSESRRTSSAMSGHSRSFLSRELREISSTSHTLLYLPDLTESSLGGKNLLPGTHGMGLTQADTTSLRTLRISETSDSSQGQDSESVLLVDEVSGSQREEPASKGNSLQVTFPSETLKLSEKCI

Row | SMILES | EC50 (EP4 receptor [1]) | EC50 (EP4 receptor [2]) | EC50 (EP2 receptor) | IC50 ([3]; read-out: hEP4 receptor binding IC50) | Ki ([3]; read-out: hEP4 receptor binding Ki)
1 | CC(CCCc1ccccc1)[C@H](O)/C=C/[C@H]1CCC(=O)N1CCCCCCC(=O)O (mixture of isomers) [Example 2C, 7-((2R)-2-((3S,E)-3-hydroxy-4-methyl-7-phenylhept-1-en-1-yl)-5-oxopyrrolidin-1-yl)heptanoic acid] | 0.007 nM | 0.001 ± 0.001 nM | > 1000 nM | – | –
2 | CC(CCCc1ccccc1)[C@H](O)/C=C/[C@H]1CCC(=O)N1CC#Cc1ccc(C(=O)O)s1 (mixture of isomers) [Example 3C, 5-(3-((2R)-2-((3S,E)-3-hydroxy-4-methyl-7-phenylhept-1-en-1-yl)-5-oxopyrrolidin-1-yl)prop-1-yn-1-yl)thiophene-2-carboxylic acid] | – | 0.019 nM | > 10000 nM | – | –
3 | CC(CCCc1ccccc1)[C@@H](O)/C=C/[C@H]1CCC(=O)N1CC#Cc1ccc(C(=O)O)s1 (mixture of isomers) [Example 3D, 5-(3-((2R)-2-((3R,E)-3-hydroxy-4-methyl-7-phenylhept-1-en-1-yl)-5-oxopyrrolidin-1-yl)prop-1-yn-1-yl)thiophene-2-carboxylic acid] | – | 31.5 nM | > 10000 nM | – | –
4 | CC(CCCc1ccccc1)[C@H](O)/C=C/[C@H]1CCC(=O)N1CCCc1ccc(C(=O)O)s1 (mixture of isomers) [Example 4C, 5-(3-((2R)-2-((3S,E)-3-hydroxy-4-methyl-7-phenylhept-1-en-1-yl)-5-oxopyrrolidin-1-yl)propyl)thiophene-2-carboxylic acid] | – | 0.003 nM | 2280 nM | – | –
5 | CC(CCCc1ccccc1)[C@@H](O)/C=C/[C@H]1CCC(=O)N1CCCc1ccc(C(=O)O)s1 (mixture of isomers) [Example 4D, 5-(3-((2R)-2-((3R,E)-3-hydroxy-4-methyl-7-phenylhept-1-en-1-yl)-5-oxopyrrolidin-1-yl)propyl)thiophene-2-carboxylic acid] | – | – | > 10000 nM | – | –
6 | O=C(O)CCCCCCN1C(=O)CC[C@@H]1/C=C/[C@@H](O)CCCCc1ccccc1 [Example 1C, 7-((R)-2-((S,E)-3-hydroxy-7-phenylhept-1-en-1-yl)-5-oxopyrrolidin-1-yl)heptanoic acid] | 1.37 nM | 0.014 ± 0.02 nM | > 1000 nM | 10 nM | 3.8 nM
